{
  "source": "patent US20110135772A1",
  "about": "“SKIN CARE AGENT AND COMPOSITIONS THEREOF” (priority 2009, published 2011)",
  "molecular_target": "elastase (Sus scrofa, UniProt P00772)",
  "sequence (P00772 27-266)": "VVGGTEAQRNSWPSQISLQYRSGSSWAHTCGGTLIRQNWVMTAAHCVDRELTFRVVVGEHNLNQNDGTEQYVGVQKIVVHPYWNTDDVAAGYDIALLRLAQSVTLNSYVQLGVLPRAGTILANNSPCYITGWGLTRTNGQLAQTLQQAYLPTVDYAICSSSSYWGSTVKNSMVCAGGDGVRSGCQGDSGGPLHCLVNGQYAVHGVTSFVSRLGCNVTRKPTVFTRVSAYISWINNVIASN",
  "assay": "Elastase inhibition assay (succinyl-L-alanyl-L-alanyl-L-alanyl-p-nitroanilide hydrolysis, 410 nm)",
  "format": "biochemical",
  "description": "300 μl (0.6 mg) of succinyl-L-alanyl-L-alanyl-L-alanyl-p-nitroanilide (the enzyme substrate), 1200 μl of buffer and varying amounts of the elastase inhibitor under testing are incubated at 37° C. for 20 minutes. The hydrolysis is measured by the spectrophotometric measurement of the release of p-nitroaniline at a wavelength of 410 nm.\nThe anti-aging activity of the individual molecules along with different combinations were studied and the results mentioned in Table.2",
  "data": [
    {"smiles": "O=C(OC[C@H]1O[C@@H](OC(=O)c2cc(O)c(O)c(O)c2)[C@H](OC(=O)c2cc(O)c(O)c(O)c2)[C@@H](OC(=O)c2cc(O)c(O)c(O)c2)[C@@H]1OC(=O)c1cc(O)c(O)c(O)c1)c1cc(O)c(O)c(O)c1", "note": "[Formula 3, pentagalloyl glucose]", "values": [
      {"measurement": "Inhibition", "setting": "at 70 μg/ml", "value": 56.6, "unit": "% at 70 μg/ml"},
      {"measurement": "% Inhibition", "setting": "synergistic studies, ratio Pentagalloyl glucose:Methyl gallate, concentration not given", "value": 49, "unit": "%"}
    ]}
  ]
}
